According to ChEMBL document CHEMBL4706683 (J Med Chem, 2021):
Activity calls are given as the source filed them. No cut-off for these calls is given here.

Experiments:
[1] = system: Plasmodium falciparum; assay: Antiplasmodial activity against synchronized ring stage Plasmodium falciparum 3D7 infected in human erythrocytes assessed as reduction in parasite growth incubated for 72 hrs by Giemsa staining based light microscopic method; format: functional, organism-based; settings: 3D7, Erythrocyte
[2] = system: Plasmodium falciparum; assay: Antiplasmodial activity against synchronized ring stage Plasmodium falciparum Dd2 infected in human erythrocytes assessed as reduction in parasite growth incubated for 72 hrs by Giemsa staining based light microscopic method; format: functional, organism-based; settings: Dd2, Erythrocyte
[3] = system: HepG2; assay: Cytotoxicity against human HepG2 cells assessed as reduction in cell viability incubated for 72 hrs by cell titer glo assay; format: cell-based; settings: HepG2, 72 h
[4] = system: HEK-293T; assay: Cytotoxicity against human HEK293T cells assessed as reduction in cell viability incubated for 72 hrs by cell titer glo assay; format: cell-based
[5] = Selectivity index, ratio of IC50 for cytotoxicity against human HepG2 cells assessed to IC50 for antiplasmodial activity against synchronized ring stage Plasmodium falciparum 3D7 infected in human erythrocytes; format: toxicity, cell-based; settings: read-out: Ratio IC50
[6] = Selectivity index, ratio of IC50 for cytotoxicity against human HEK293T cells assessed to IC50 for antiplasmodial activity against synchronized ring stage Plasmodium falciparum 3D7 infected in human erythrocytes; format: toxicity, cell-based; settings: read-out: Ratio IC50
[7] = system: Plasmodium falciparum; assay: Antiplasmodial activity against Plasmodium falciparum GB4 infected in human erythrocytes assessed as reduction in parasite growth incubated for 72 hrs by Giemsa staining based light microscopic method; format: functional, organism-based; settings: GB4, Erythrocyte
[8] = system: Plasmodium falciparum; assay: Antiplasmodial activity against Plasmodium falciparum C2A infected in human erythrocytes assessed as reduction in parasite growth incubated for 72 hrs by Giemsa staining based light microscopic method; format: functional, organism-based; settings: Erythrocyte
[9] = system: Plasmodium falciparum; assay: Antiplasmodial activity against Plasmodium falciparum CP286 infected in human erythrocytes assessed as reduction in parasite growth incubated for 72 hrs by Giemsa staining based light microscopic method; format: functional, organism-based; settings: CP286, Erythrocyte
[10] = system: Plasmodium falciparum; assay: Antiplasmodial activity against artemisinin-resistant Plasmodium falciparum 6218 infected in human erythrocytes assessed as reduction in parasite growth incubated for 72 hrs by Giemsa staining based light microscopic method; format: functional, organism-based; settings: Plasmodium falciparum, 6218, Erythrocyte
[11] = system: Plasmodium falciparum; assay: Antiplasmodial activity against artemisinin-resistant ring stage Plasmodium falciparum 6320 infected in human erythrocytes assessed as reduction in parasite growth incubated for 72 hrs by Giemsa staining based light microscopic method; format: functional, organism-based; settings: Plasmodium falciparum, 6320, Erythrocyte
[12] = Half life in mouse liver microsomes incubated upto 45 mins in presence of NADPH by LC-MS/MS analysis; format: ADME, Microsome
[13] = Clearance in mouse liver microsomes incubated upto 45 mins in presence of NADPH by LC-MS/MS analysis; format: ADME, Microsome; settings: read-out: CLH
[14] = Toxicity in Balb/c mouse infected with blood stage Plasmodium yoelii assessed as animal death at 60 mg/kg, ip QD for 5 consecutive days and measured on day 30; format: organism-based; settings: in vivo, 120 h, time 5 day
[15] = system: Plasmodium yoelii; assay: Antiplasmodial activity against blood stage Plasmodium yoelii infected in Balb/c mouse assessed as reduction in parasitemia at 60 mg/kg, ip QD for 5 consecutive days and measured on day 30 by microscopic analysis; format: functional, organism-based; settings: time 5.0 day

Row | SMILES | IC50 [1] [nM] | IC50 [2] [nM] | IC50 [3] [nM] | IC50 [4] [nM] | selectivity ratio [5] | selectivity ratio [6] | IC50 [7] [nM] | IC50 [8] [nM] | IC50 [9] [nM] | IC50 [10] [nM] | IC50 [11] [nM] | half-life [12] [min] | CLint scaled [13] [mL/min/kg] | Activity [14] | Activity [15]
1 | Cl.Cn1cc(CN2CCC3(CCN(c4ncc(C(=O)NO)cn4)CC3)C2)c2ncccc21 | 3.22 | 4.3 | 855 | 755 | 266 | 235 | 3.7 | 5 | 5.5 | 4.04 | 3.8 | 135 | 40.4 | Non-Toxic | inactive
2 | O=C(NO)c1cnc(N2CCC3(CCN(Cc4csc5ccccc45)C3)CC2)nc1 | 4.3 | 3.6 | 79 | 109 | 18 | 25 | – | – | – | – | – | – | – | – | –
3 | O=C(NO)c1cnc(N2CCC3(CCN(Cc4c5ccccc5cc5ccccc45)C3)CC2)nc1 | 22.3 | 16.5 | 165 | 390 | 7 | 18 | – | – | – | – | – | – | – | – | –
4 | O=C(NO)c1cnc(N2CCC3(CCN(Cc4cccc5cccnc45)C3)CC2)nc1 | 8 | 3.4 | 221 | 351 | 28 | 44 | – | – | – | – | – | – | – | – | –
5 | O=C(NO)c1cnc(N2CCC3(CCN(Cc4ccccc4)C3)CC2)nc1 | 6.8 | 7.6 | 217 | 375 | 32 | 55 | – | – | – | – | – | – | – | – | –
6 | O=C(NO)c1cnc(N2CCC3(CCN(Cc4cncc5ccccc45)C3)CC2)nc1 | 11.5 | 7.9 | 102 | 423 | 9 | 37 | – | – | – | – | – | – | – | – | –
7 | O=C(NO)c1cnc(N2CCC3(CCN(Cc4ccnc5ccccc45)C3)CC2)nc1 | 14.6 | 14.7 | 482 | 351 | 33 | 24 | – | – | – | – | – | – | – | – | –
8 | C[C@H]1[C@@H](O)O[C@@H]2O[C@@]3(C)CC[C@H]4[C@H](C)CC[C@@H]1[C@@]24OO3 [ARTENIMOL] | 2.7 | 2.68 | – | – | – | – | 3.2 | 3.7 | 5.6 | 5.2 | 5.9 | – | – | – | –
9 | O=C(NO)c1cnc(N2CCC3(CCN(Cc4ccccn4)C3)CC2)nc1 | 16.2 | 23.3 | 1300 | 1720 | 80 | 106 | – | – | – | – | – | – | – | – | –
10 | Cn1nc(CN2CCC3(CCN(c4ncc(C(=O)NO)cn4)CC3)C2)c2ccccc21 | 4.8 | 4.9 | 139 | 395 | 29 | 82 | – | – | – | – | – | – | – | – | –
11 | O=C(NO)c1cnc(N2CCC3(CCN(Cc4ccc5ccccc5c4)C3)CC2)nc1 | 4.1 | 3.16 | 228 | 484 | 56 | 118 | – | – | – | – | – | – | – | – | –
12 | O=C(NO)c1cnc(N2CCC3(CCN(Cc4ccoc4)C3)CC2)nc1 | 35.3 | 26.3 | 1050 | 1630 | 30 | 46 | – | – | – | – | – | – | – | – | –
13 | O=C(NO)c1cnc(N2CCC3(CCN(Cc4cnc5ccccc5c4)C3)CC2)nc1 | 5.54 | 2.7 | 564 | 145 | 102 | 26 | – | – | – | – | – | – | – | – | –
14 | O=C(NO)c1cnc(N2CCC3(CCN(CC4CCCC4)C3)CC2)nc1 | 13.6 | 12.7 | 630 | 1220 | 46 | 90 | – | – | – | – | – | – | – | – | –
15 | Cl.Cn1cc(CN2CCC3(CCN(c4ncc(C(=O)NO)cn4)CC3)C2)c2ccccc21 | 2.8 | 2.5 | 72 | 60 | 26 | 22 | 3.7 | 4.87 | 3.9 | 3.5 | 4.1 | 12.9 | 424 | Toxic | –
16 | O=C(NO)c1cnc(N2CCC3(CCN(Cc4ccncc4)C3)CC2)nc1 | 16.9 | 22.8 | 3250 | 3470 | 193 | 206 | – | – | – | – | – | – | – | – | –
17 | O=C(NO)c1cnc(N2CCC3(CCN(CC4CCCCC4)C3)CC2)nc1 | 10.2 | 14.7 | 1630 | 1250 | 160 | 122 | – | – | – | – | – | – | – | – | –
18 | O=C(NO)c1cnc(N2CCC3(CCN(Cc4cccnc4)C3)CC2)nc1 | 20.4 | 17.9 | 1830 | 2130 | 90 | 104 | – | – | – | – | – | – | – | – | –
19 | O=C(NO)c1cnc(N2CCC3(CCN(Cc4ccc5ccc6cccc7ccc4c5c67)C3)CC2)nc1 | 26.4 | 19.5 | 1680 | 1970 | 64 | 74 | – | – | – | – | – | – | – | – | –
20 | O=C(NO)c1cnc(N2CCC3(CCN(Cc4cccc5ccncc45)C3)CC2)nc1 | 8.1 | 6.9 | 415 | 207 | 51 | 26 | – | – | – | – | – | – | – | – | –
21 | O=C(NO)c1cnc(N2CCC3(CCN(Cc4cccc5ncccc45)C3)CC2)nc1 | 11.6 | 9.2 | 740 | 559 | 64 | 48 | – | – | – | – | – | – | – | – | –
22 | O=C(NO)c1cnc(N2CCC3(CCN(Cc4ccsc4)C3)CC2)nc1 | 23.1 | 11.8 | 1060 | 831 | 46 | 36 | – | – | – | – | – | – | – | – | –
23 | Cl.Cn1cc(CN2CCC3(CCN(c4ncc(C(=O)NO)cn4)CC3)C2)c2cccnc21 | 3 | 3.4 | 281 | 399 | 93 | 132 | 6.4 | 6.18 | 6.8 | 5 | 5.2 | 165 | 33.1 | Non-Toxic | inactive
24 | O=C(NO)c1cnc(N2CCC3(CCN(Cc4cccc5ccccc45)C3)CC2)nc1 | 4.4 | 6.7 | 91 | 154 | 21 | 35 | – | – | – | – | – | – | – | – | –
25 | O=C(NO)c1cnc(N2CCC3(CCN(Cc4ccc5ccccc5n4)C3)CC2)nc1 | 6.9 | 2.98 | 320 | 393 | 47 | 57 | – | – | – | – | – | – | – | – | –
26 | O=C(NO)c1cnc(N2CCC3(CCN(Cc4ccc(-c5ccccc5)cc4)C3)CC2)nc1 | 34.5 | 46.1 | 641 | 732 | 19 | 21 | – | – | – | – | – | – | – | – | –
27 | Cl.Cn1cc(CN2CCC3(CCN(c4ncc(C(=O)NO)cn4)CC3)C2)c2cnccc21 | 4 | 4.9 | 982 | 1460 | 248 | 370 | 9.5 | 11.7 | 11.1 | 8.7 | 8.4 | 125 | 43.5 | Toxic | –
28 | O=C(NO)c1cnc(N2CCC3(CCN(Cc4cnc5ccccn45)C3)CC2)nc1 | 14.4 | 18.5 | 1960 | 3530 | 136 | 245 | – | – | – | – | – | – | – | – | –
29 | O=C(NO)c1cnc(N2CCC3(CCN(Cc4cc5ccccc5c5ccccc45)C3)CC2)nc1 | 10.1 | 8.5 | 204 | 482 | 20 | 48 | – | – | – | – | – | – | – | – | –
30 | O=C(NO)c1cnc(N2CCC3(CCN(Cc4coc5ccccc45)C3)CC2)nc1 | 13.6 | 10.9 | 886 | 576 | 65 | 42 | – | – | – | – | – | – | – | – | –
